In ChEMBL document CHEMBL1201862, “PubChem BioAssay data set” (2004):
Activity calls are given as the source filed them.

Legend:
[1] = molecular target: T1, Caspase-9 (Homo sapiens, UniProt P55211); experiment: caspase-9 enzyme inhibition, dose response, selectivity assay for caspase-6 inhibitor project, biochemical, fluorescence, plate reader, cherry-picked samples (AID 743293)
T1 sequence (P55211 whole entry): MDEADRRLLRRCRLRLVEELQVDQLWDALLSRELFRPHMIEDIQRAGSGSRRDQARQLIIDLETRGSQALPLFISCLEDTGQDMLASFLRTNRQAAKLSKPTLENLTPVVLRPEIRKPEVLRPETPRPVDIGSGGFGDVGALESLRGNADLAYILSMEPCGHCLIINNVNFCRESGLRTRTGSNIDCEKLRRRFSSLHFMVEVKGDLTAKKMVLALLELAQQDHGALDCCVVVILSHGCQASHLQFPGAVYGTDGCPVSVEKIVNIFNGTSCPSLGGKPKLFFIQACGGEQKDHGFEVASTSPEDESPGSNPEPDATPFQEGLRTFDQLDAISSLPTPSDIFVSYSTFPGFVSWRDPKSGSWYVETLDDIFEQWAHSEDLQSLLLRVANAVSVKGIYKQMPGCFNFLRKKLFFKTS

[2] = molecular target: T2, Apoptotic protease-activating factor 1 (Homo sapiens, UniProt O14727); assay type: functional
T2 sequence (O14727 whole entry): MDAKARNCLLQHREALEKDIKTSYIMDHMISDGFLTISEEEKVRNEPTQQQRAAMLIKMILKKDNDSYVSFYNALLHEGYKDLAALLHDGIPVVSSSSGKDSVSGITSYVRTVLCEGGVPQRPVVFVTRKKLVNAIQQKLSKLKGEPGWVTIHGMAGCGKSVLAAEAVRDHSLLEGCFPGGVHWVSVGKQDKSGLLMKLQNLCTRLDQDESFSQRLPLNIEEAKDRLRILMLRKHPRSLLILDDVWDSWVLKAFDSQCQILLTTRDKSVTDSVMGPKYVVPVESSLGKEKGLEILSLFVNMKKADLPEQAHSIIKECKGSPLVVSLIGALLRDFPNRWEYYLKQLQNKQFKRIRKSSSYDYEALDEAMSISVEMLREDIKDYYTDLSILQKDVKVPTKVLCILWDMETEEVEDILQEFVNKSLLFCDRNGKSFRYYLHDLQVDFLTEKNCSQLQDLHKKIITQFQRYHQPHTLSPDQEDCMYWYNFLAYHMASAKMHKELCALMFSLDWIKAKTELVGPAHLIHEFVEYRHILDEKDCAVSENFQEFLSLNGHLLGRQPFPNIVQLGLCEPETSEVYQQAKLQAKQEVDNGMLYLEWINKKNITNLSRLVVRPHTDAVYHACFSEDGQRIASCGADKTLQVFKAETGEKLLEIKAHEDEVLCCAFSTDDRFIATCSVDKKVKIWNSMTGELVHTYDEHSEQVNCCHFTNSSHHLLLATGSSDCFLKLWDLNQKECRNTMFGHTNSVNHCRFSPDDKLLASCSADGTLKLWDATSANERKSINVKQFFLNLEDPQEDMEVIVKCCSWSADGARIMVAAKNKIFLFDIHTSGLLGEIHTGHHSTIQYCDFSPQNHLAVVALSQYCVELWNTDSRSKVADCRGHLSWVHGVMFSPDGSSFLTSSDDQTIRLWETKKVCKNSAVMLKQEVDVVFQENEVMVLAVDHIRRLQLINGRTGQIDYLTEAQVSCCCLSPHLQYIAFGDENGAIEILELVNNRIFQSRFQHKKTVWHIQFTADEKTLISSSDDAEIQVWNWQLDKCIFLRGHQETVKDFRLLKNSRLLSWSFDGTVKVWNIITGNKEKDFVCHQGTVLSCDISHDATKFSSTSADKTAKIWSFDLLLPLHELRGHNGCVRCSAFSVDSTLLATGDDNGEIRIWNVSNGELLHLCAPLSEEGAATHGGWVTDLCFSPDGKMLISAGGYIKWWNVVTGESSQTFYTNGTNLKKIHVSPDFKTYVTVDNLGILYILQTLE

[3] = molecular target: Caspase-8 (Homo sapiens, UniProt Q14790); experiment: caspase-8 inhibition counter-screen, dose response, selectivity assay for caspase-6 inhibitor project, biochemical, Z-IETD-R110 fluorescence, cherry-picked samples (AID 743294)
Chain of Caspase-8 (Q14790 217-374 limits assumed): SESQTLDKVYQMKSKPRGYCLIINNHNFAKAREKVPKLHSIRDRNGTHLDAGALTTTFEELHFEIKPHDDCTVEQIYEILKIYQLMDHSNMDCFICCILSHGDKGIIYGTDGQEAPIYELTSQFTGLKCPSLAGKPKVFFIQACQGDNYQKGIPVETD
Chain of Caspase-8 (Q14790 385-479 limits assumed): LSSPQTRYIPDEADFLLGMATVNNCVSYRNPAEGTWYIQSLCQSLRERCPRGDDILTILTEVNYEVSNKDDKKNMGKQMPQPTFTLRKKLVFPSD

[4] = control 3'UTR Renilla luciferase suppression, dose response, counter-screen for Shn3 inhibitor project, cell-based, Clone20-Shn3RL, cherry-picked (AID 624133); assay type: functional
[5] = molecular target: T3, Protein RecA (Mycobacterium tuberculosis, UniProt P9WHJ3); experiment: RecA Intein Measured in Biochemical System Using Plate Reader - 2047-02_Inhibitor_Dose_DryPowder_Activity. [Related pubchem assays (depositor defined):AID2223]; parameters: species or system Mycobacterium tuberculosis H37Rv
T3 sequence (P9WHJ3 whole entry): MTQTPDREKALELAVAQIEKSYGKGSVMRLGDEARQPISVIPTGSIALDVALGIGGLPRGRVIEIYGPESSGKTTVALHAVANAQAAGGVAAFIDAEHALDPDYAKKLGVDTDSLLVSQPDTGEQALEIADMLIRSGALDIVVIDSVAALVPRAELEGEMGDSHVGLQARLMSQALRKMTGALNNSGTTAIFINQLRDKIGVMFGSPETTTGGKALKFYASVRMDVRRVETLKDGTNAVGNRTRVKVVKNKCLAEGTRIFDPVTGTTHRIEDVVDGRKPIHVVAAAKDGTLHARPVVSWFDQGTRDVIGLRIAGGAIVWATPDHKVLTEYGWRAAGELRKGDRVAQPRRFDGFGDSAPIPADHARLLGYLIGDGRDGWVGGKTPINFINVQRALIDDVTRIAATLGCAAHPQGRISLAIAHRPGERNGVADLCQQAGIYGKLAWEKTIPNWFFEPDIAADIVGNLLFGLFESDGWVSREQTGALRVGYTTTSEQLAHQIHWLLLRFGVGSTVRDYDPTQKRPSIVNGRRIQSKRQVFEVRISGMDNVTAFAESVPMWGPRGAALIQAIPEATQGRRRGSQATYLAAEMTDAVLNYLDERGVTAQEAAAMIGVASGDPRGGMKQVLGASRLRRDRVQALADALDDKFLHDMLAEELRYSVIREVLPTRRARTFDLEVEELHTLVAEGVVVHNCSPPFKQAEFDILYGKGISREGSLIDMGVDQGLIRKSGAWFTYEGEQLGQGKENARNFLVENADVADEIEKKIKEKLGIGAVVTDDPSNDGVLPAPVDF

[6] = molecular target: Sphingosine 1-phosphate receptor 2 (Homo sapiens, UniProt O95136); experiment: Dose Response Cell Based Assay for Antagonists of the S1P2 Receptor. [Related pubchem assays: 856, 736 ]; assay type: functional
Chain of Sphingosine 1-phosphate receptor 2 (O95136 whole entry): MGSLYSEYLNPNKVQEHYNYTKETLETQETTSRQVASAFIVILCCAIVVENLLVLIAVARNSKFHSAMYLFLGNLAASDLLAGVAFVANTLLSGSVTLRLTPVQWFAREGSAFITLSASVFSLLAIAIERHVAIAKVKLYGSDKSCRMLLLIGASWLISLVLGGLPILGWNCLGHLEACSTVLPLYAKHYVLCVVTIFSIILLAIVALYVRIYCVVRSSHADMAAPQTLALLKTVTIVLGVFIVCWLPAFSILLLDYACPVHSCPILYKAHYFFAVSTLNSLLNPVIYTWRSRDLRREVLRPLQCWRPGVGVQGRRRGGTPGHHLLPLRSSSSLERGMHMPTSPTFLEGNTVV

Cn1nc(-c2ccccn2)nc2c(=O)n(C)c(=O)nc1-2
active: AC50 [1] 317 nM | IC50 [2] 79 nM | AC50 [3] 436 nM | AC50 [4] 2960 nM | AC50 [5] 47 nM

CCCCCCCCCCn1c2c(c(=N)c3c1CCC3)CCC2
active: IC50 [6] 2940 nM
